39 molecules from publication PMC5813235, “Selective inhibition of TRPM2 channel by two novel synthesized ADPR analogues” (Chemical Biology & Drug Design, 2017) can be followed below.

This experiment deals with T1, human TRPM2 (Homo sapiens, UniProt O94759).
T1 construct: whole-cell patch clamp
The experiment is described as follows: whole-cell patch clamp, current inhibition. The format is cell-based.

The mark [1] stands for this setting: compound in intracellular (pipette) solution with 0.1 mM ADPR as activator, room temperature, pH 7.3 inside, 7.4 outside.

pIC50: −log10 of the molar value. Like-named read-outs stand apart in the source and are kept apart here. Some results are limits rather than exact numbers.

As usually defined, the pIC50 is the negative decadic logarithm of the IC50, by convention in mol/L.

T1 sequence (O94759 whole entry): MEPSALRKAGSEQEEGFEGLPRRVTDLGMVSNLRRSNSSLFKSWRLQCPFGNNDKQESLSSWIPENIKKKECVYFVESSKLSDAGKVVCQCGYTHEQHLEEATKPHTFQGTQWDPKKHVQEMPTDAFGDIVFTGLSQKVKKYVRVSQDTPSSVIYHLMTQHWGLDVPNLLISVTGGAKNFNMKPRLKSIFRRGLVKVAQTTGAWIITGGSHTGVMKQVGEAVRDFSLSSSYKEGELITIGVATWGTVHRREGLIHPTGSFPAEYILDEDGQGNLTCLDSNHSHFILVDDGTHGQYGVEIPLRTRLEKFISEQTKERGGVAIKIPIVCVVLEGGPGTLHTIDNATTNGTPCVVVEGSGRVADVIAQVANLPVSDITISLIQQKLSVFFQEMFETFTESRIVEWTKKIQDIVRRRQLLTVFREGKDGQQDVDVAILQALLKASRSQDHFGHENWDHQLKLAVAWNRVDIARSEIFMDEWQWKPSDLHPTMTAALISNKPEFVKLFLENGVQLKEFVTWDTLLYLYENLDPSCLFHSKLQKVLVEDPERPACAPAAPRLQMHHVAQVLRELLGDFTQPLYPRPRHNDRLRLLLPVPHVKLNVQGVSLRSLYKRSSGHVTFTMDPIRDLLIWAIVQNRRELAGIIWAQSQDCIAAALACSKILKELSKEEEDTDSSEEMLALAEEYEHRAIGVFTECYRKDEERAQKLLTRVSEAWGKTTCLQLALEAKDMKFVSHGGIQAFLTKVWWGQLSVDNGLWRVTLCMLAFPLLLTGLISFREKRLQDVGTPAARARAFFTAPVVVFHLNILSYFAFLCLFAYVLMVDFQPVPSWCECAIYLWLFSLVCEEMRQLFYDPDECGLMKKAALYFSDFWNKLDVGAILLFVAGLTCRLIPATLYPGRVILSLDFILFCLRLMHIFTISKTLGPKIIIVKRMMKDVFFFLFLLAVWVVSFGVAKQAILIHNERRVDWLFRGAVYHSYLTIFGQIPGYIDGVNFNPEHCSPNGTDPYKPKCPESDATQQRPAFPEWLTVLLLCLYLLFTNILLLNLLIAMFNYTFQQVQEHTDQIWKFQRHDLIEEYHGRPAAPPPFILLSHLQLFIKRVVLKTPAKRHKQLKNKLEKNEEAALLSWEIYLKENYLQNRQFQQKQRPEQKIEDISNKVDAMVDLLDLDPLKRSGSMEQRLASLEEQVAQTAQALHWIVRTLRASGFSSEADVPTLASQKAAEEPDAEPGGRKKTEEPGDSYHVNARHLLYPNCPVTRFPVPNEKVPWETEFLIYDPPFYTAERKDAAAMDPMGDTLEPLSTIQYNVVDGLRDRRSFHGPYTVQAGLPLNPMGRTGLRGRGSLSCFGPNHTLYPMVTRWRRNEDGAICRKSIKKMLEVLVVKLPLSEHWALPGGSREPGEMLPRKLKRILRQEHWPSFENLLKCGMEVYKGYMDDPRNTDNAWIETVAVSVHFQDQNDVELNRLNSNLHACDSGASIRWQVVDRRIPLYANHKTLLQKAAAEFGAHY

`CO[C@@H]1[C@H](O)[C@@H](COP(=O)(O)CP(=O)(O)OC[C@H]2OC(O)[C@H](O)[C@@H]2O)O[C@H]1n1cnc2c(N)ncnc21` (stereo partly drawn) [compound 14, 2′‐methoxy‐5′‐methylenediphoribose adenosine]: the negative-log IC50 (pIC50) was less than 4.00.

`Nc1nc(I)nc2c1ncn2[C@@H]1O[C@H](COP(=O)(O)CP(=O)(O)OC[C@H]2OC(O)[C@H](O)[C@@H]2O)[C@@H](O)[C@H]1O` (stereo partly drawn) [10m] had a negative logarithm of the IC50 (pIC50) of less than 4.00.

As for `Nc1ncnc2c1ncn2[C@@H]1O[C@H](COP(=O)(O)CP(=O)(O)OC[C@H]2OC(O)[C@H](O)[C@@H]2O)[C@@H](O)[C@H]1O` (stereo partly drawn) [10a, methylenediphosphoribose adenosine], the pIC50 under setting [1] was less than 4.00.

Turning to `COc1nc(N)c2ncn([C@@H]3O[C@H](COP(=O)(O)C(F)(F)P(=O)(O)OC[C@H]4OC(OC)[C@@H]5OC(C)(C)O[C@H]45)[C@H]4OC(C)(C)O[C@H]43)c2n1` (stereo partly drawn) [7j], the pIC50 was less than 4.00.

`COC1O[C@H](COP(=O)(O)CP(=O)(O)OC[C@H]2O[C@@H](n3cnc4c(N(C)C)ncnc43)[C@@H]3OC(C)(C)O[C@@H]32)[C@H]2OC(C)(C)O[C@@H]12` (stereo partly drawn) [7g]: the pIC50 is less than 4.00.

`COc1nc(N)c2ncn([C@@H]3O[C@H](COP(=O)(O)CP(=O)(O)OC[C@H]4OC(OC)[C@@H]5OC(C)(C)O[C@H]45)[C@H]4OC(C)(C)O[C@H]43)c2n1` (stereo partly drawn) [7d] had a negative logarithm of the IC50 (pIC50) of less than 4.00.

`Nc1nc(Br)nc2c1ncn2[C@@H]1O[C@H](COP(=O)(O)CP(=O)(O)OC[C@H]2OC(O)[C@H](O)[C@@H]2O)[C@@H](O)[C@H]1O` (stereo partly drawn) [10c] showed a negative logarithm of the IC50 (pIC50) of less than 4.00.

For the molecule `COC1O[C@H](COP(=O)(O)C(F)(F)P(=O)(O)OC[C@H]2O[C@@H](n3cnc4c(N)nc(I)nc43)[C@H](O)[C@@H]2O)[C@@H](O)[C@H]1O` (stereo partly drawn) [9b], the pIC50 is less than 4.00.

Molecule `COC1O[C@H](COP(=O)(O)C(F)(F)P(=O)(O)OC[C@H]2O[C@@H](n3cnc4c(N)nc(Br)nc43)[C@H](O)[C@@H]2O)[C@@H](O)[C@H]1O` (stereo partly drawn) [9a, 1″‐O‐methyl‐difluoromethylenediphosphoribose‐2‐bromoadenosine] showed a negative logarithm of the IC50 (pIC50) of less than 4.00.

For `Nc1ncnc2c1ncn2[C@@H]1O[C@H](COP(=O)(O)OP(=O)(O)OC[C@H]2OC(O)[C@H](O)[C@@H]2O)[C@@H](O)[C@H]1O` (stereo partly drawn) [10l], the pIC50 (compound in intracellular solution with 0.1 mM ADPR, drawn structure is ADPR itself, the channel activator) was less than 4.00.

`COC1O[C@H](COP(=O)(O)C(F)(F)P(=O)(O)OC[C@H]2O[C@@H](n3cnc4c(N)nc(Br)nc43)[C@@H]3OC(C)(C)O[C@@H]32)[C@H]2OC(C)(C)O[C@@H]12` (stereo partly drawn) [7n, 1″‐O‐methyl‐2″,2′,3″,3′‐O‐isopropylidene‐5′‐difluoromethylenediphosphoribose‐2‐bromoadenosine] gave a pIC50 of less than 4.00.

For the molecule `COC1O[C@H](COP(=O)(O)C(F)(F)P(=O)(O)OC[C@H]2O[C@@H](n3cnc4c(N)nc(Cl)nc43)[C@@H]3OC(C)(C)O[C@@H]32)[C@H]2OC(C)(C)O[C@@H]12` (stereo partly drawn) [7i], the negative-log IC50 (pIC50) is 5.24.

As for `Nc1nc(I)nc2c1ncn2[C@@H]1O[C@H](COP(=O)(O)C(F)(F)P(=O)(O)OC[C@H]2OC(O)[C@H](O)[C@@H]2O)[C@@H](O)[C@H]1O` (stereo partly drawn) [10o], the pIC50 is less than 4.00.

The molecule `Nc1nc(N)c2ncn([C@@H]3O[C@H](COP(=O)(O)CP(=O)(O)OC[C@H]4OC(O)[C@H](O)[C@@H]4O)[C@@H](O)[C@H]3O)c2n1` (stereo partly drawn) [10e] had a pIC50 of less than 4.00.

With `CNc1ncnc2c1ncn2[C@@H]1O[C@H](COP(=O)(O)CP(=O)(O)OC[C@H]2OC(O)[C@H](O)[C@@H]2O)[C@@H](O)[C@H]1O` (stereo partly drawn) [10f], the pIC50 was less than 4.00.

On to `COC1O[C@H](COP(=O)(O)C(F)(F)P(=O)(O)OC[C@H]2O[C@@H](n3cnc4c(N)nc(N)nc43)[C@@H]3OC(C)(C)O[C@@H]32)[C@H]2OC(C)(C)O[C@@H]12` (stereo partly drawn) [7k], for which the pIC50 was less than 4.00.

With `COC1O[C@H](COP(=O)(O)C(F)(F)P(=O)(O)OC[C@H]2O[C@@H](n3cnc4c(N)nc(I)nc43)[C@@H]3OC(C)(C)O[C@@H]32)[C@H]2OC(C)(C)O[C@@H]12` (stereo partly drawn) [7o], the negative-log IC50 (pIC50) is less than 4.00.

Molecule `COC1O[C@H](COP(=O)(O)CP(=O)(O)OC[C@H]2O[C@@H](n3cnc4c(N)nc(Cl)nc43)[C@H](O)[C@@H]2O)[C@H]2OC(C)(C)O[C@@H]12` (stereo partly drawn) [8b] had a pIC50 of less than 4.00.

Turning to `COC1O[C@H](COP(=O)(O)C(F)(F)P(=O)(O)OC[C@H]2O[C@@H](n3cnc4c(N)nc(Br)nc43)[C@H](O)[C@@H]2O)[C@H]2OC(C)(C)O[C@@H]12` (stereo partly drawn) [8d, 1″‐O‐methyl‐2″,3″‐O‐isopropylidene‐5′‐difluoromethylenediphosphoribose‐2‐bromoadenosine], the pIC50 was less than 4.00.

`COC1O[C@H](COP(=O)(O)CP(=O)(O)OC[C@H]2O[C@@H](n3cnc4c(N)ncnc43)[C@H](O)[C@@H]2O)[C@H]2OC(C)(C)O[C@@H]12` (stereo partly drawn) [8a, 1″‐O‐methyl‐2″,3″‐O‐isopropylidene‐5′‐methylenediphosphoribose adenosine] showed a negative logarithm of the IC50 (pIC50) of 5.27.

`COc1nc(N)c2ncn([C@@H]3O[C@H](COP(=O)(O)C(F)(F)P(=O)(O)OC[C@H]4OC(O)[C@H](O)[C@@H]4O)[C@@H](O)[C@H]3O)c2n1` (stereo partly drawn) [10j] gave a negative-log IC50 (pIC50) of less than 4.00.

For `COC1O[C@H](COP(=O)(O)CP(=O)(O)OC[C@H]2O[C@@H](n3cnc4c(N)nc(Br)nc43)[C@@H]3OC(C)(C)O[C@@H]32)[C@H]2OC(C)(C)O[C@@H]12` (stereo partly drawn) [7c], the negative-log IC50 (pIC50) was less than 4.00.

On to `CNc1ncnc2c1ncn2[C@@H]1O[C@H](COP(=O)(O)CP(=O)(O)OC[C@H]2OC(OC)[C@@H]3OC(C)(C)O[C@H]23)[C@H]2OC(C)(C)O[C@H]21` (stereo partly drawn) [7f], for which the negative-log IC50 (pIC50) is less than 4.00.

`COC1O[C@H](COP(=O)(O)CP(=O)(O)OC[C@H]2O[C@@H](n3cnc4c(N)ncnc43)[C@@H]3OC(C)(C)O[C@@H]32)[C@H]2OC(C)(C)O[C@@H]12` (stereo partly drawn) [7a, 1″‐O‐methyl‐2″,2′,3″,3′‐O‐isopropylidene‐5′‐methylenediphoribose adenosine] had a negative logarithm of the IC50 (pIC50) of less than 4.00.

`COC1O[C@H](COP(=O)(O)C(F)(F)P(=O)(O)OC[C@H]2O[C@@H](n3cnc4c(N)nc(I)nc43)[C@H](O)[C@@H]2O)[C@H]2OC(C)(C)O[C@@H]12` (stereo partly drawn) [8e] had a negative-log IC50 (pIC50) of less than 4.00.

In turn, `Nc1nc(Cl)nc2c1ncn2[C@@H]1O[C@H](COP(=O)(O)C(F)(F)P(=O)(O)OC[C@H]2OC(O)[C@H](O)[C@@H]2O)[C@@H](O)[C@H]1O` (stereo partly drawn) [10i] had a pIC50 of less than 4.00.

In the case of `COC1O[C@H](COP(=O)(O)CP(=O)(O)OC[C@H]2O[C@@H](n3cnc4c(N)ncnc43)[C@H](OC)[C@@H]2O)[C@H]2OC(C)(C)O[C@@H]12` (stereo partly drawn) [compound 13, 1″‐O‐methyl‐2″,3″‐O‐isopropylidene‐2′‐methoxy‐5′‐methylenediphoribose adenosine], the pIC50 is less than 4.00.

Consider `COc1nc(N)c2ncn([C@@H]3O[C@H](COP(=O)(O)CP(=O)(O)OC[C@H]4OC(O)[C@H](O)[C@@H]4O)[C@@H](O)[C@H]3O)c2n1` (stereo partly drawn) [10d], for which the negative logarithm of the IC50 (pIC50) was less than 4.00.

As for `Nc1nc(Br)nc2c1ncn2[C@@H]1O[C@H](COP(=O)(O)C(F)(F)P(=O)(O)OC[C@H]2OC(O)[C@H](O)[C@@H]2O)[C@@H](O)[C@H]1O` (stereo partly drawn) [10n, difluoromethylenediphosphoribose‐2‐bromoadenosine], the pIC50 under setting [1] was less than 4.00.

In turn, `COC1O[C@H](COP(=O)(O)CP(=O)(O)OC[C@H]2O[C@@H](n3cnc4c(N)nc(N)nc43)[C@@H]3OC(C)(C)O[C@@H]32)[C@H]2OC(C)(C)O[C@@H]12` (stereo partly drawn) [7e] gave a pIC50 of less than 4.00.

On to `Nc1nc(N)c2ncn([C@@H]3O[C@H](COP(=O)(O)C(F)(F)P(=O)(O)OC[C@H]4OC(O)[C@H](O)[C@@H]4O)[C@@H](O)[C@H]3O)c2n1` (stereo partly drawn) [10k], for which the pIC50 is less than 4.00.

In turn, `Nc1ncnc2c1ncn2[C@@H]1O[C@H](COP(=O)(O)C(F)(F)P(=O)(O)OC[C@H]2OC(O)[C@H](O)[C@@H]2O)[C@@H](O)[C@H]1O` (stereo partly drawn) [10h] showed a pIC50 of less than 4.00.

`CN(C)c1ncnc2c1ncn2[C@@H]1O[C@H](COP(=O)(O)CP(=O)(O)OC[C@H]2OC(O)[C@H](O)[C@@H]2O)[C@@H](O)[C@H]1O` (stereo partly drawn) [10g]: the pIC50 is less than 4.00.

The molecule `COC1O[C@H](COP(=O)(O)C(F)(F)P(=O)(O)OC[C@H]2O[C@@H](n3cnc4c(N)nc(Cl)nc43)[C@H](O)[C@@H]2O)[C@H]2OC(C)(C)O[C@@H]12` (stereo partly drawn) [8c] had a negative-log IC50 (pIC50) of less than 4.00.

In turn, `Nc1nc(Cl)nc2c1ncn2[C@@H]1O[C@H](COP(=O)(O)CP(=O)(O)OC[C@H]2OC(O)[C@H](O)[C@@H]2O)[C@@H](O)[C@H]1O` (stereo partly drawn) [10b] gave a pIC50 of less than 4.00.

`COC1O[C@H](COP(=O)(O)CP(=O)(O)OC[C@H]2O[C@@H](n3cnc4c(N)nc(I)nc43)[C@@H]3OC(C)(C)O[C@@H]32)[C@H]2OC(C)(C)O[C@@H]12` (stereo partly drawn) [7m] gave a pIC50 of less than 4.00.

Regarding `COC1O[C@H](COP(=O)(O)OP(=O)(O)OC[C@H]2O[C@@H](n3cnc4c(N)ncnc43)[C@@H]3OC(C)(C)O[C@@H]32)[C@H]2OC(C)(C)O[C@@H]12` (stereo partly drawn) [7l], the pIC50 is less than 4.00.

For the molecule `COC1O[C@H](COP(=O)(O)C(F)(F)P(=O)(O)OC[C@H]2O[C@@H](n3cnc4c(N)ncnc43)[C@@H]3OC(C)(C)O[C@@H]32)[C@H]2OC(C)(C)O[C@@H]12` (stereo partly drawn) [7h], the negative-log IC50 (pIC50) was less than 4.00.

Turning to `COC1O[C@H](COP(=O)(O)CP(=O)(O)OC[C@H]2O[C@@H](n3cnc4c(N)nc(Cl)nc43)[C@@H]3OC(C)(C)O[C@@H]32)[C@H]2OC(C)(C)O[C@@H]12` (stereo partly drawn) [7b], the negative-log IC50 (pIC50) was less than 4.00.
